Experimental data published in patent publication US9426996B2, “Use of benzoxaboroles as volatile antimicrobial agents on meats, plants, or plant parts” (AgroFresh Inc., priority 2013, dated 2016).

What was measured:
Fusarium sambucinum = experiment: in vivo volatile assay on potato slices; conditions: 10 mg/L, 21° C. for 3 days
Method: To test the effect of Compound A (FIG. 1) on vegetables, potato, onion and squash were obtained from a local store, and the surface sterilized with 0.825% sodium hypochlorite (NaOCl). A slice of potato or two leaves of onion were placed in a sterile Petri plate, while whole squash were placed in a sterile 10.8-cup SnapWare airtight container (Model #109842). Each slice of potato was inoculated with 20 μL of a 1×10^5 spores/mL Fusarium sambucinum suspension, while onions were inoculated with 20 μL of a 1×10^6 spores/mL Botrytis cinerea suspension. For inoculation of squash, a small core was removed, and a mycelial plug of Phytophthora capsici was inserted and capped with the core. Compound A was diluted in acetone, and added to a 42.5 mm Whatman #1 filter disk (Cat. No. 1001-042) attached to the inner side of the lid at a rate to achieve a final headspace concentration of 10 mg/L. The acetone was permitted to evaporate for 5 minutes before parafilm sealing the plates or closing the airtight containers. The vegetables were incubated at 21° C. for 3 days, and evaluated for mycelial growth, dry rot, and water-soaked appearance (mm diameter) with results summarized in Table 13.

Penicillium digitatum = experiment: in vitro contact fungicide assay (amended PDA); assay type: cell-based; conditions: three days at 23° C.
Method: (§1) In order to assess the activity of Compound A as a contact fungicide, an in vitro assay is developed. A 6 cm-diameter Petri plate is used. Compound A is amended into full-strength Potato Dextrose Agar (PDA) to achieve a final solution concentration of 10, 2, 0.4, or 0.08 mg/L, and 15-mL volume of solution is added to each plate. After cooling, 1 μL of 1×10^5 per mL Penicillium expansum or Penicillium digitatum spore suspension is spot-pipetted into the center of the agar.
(§2) Plates are sealed with a parafilm and placed in an incubator held at 23° C. After three days of storage, the cultures are evaluated for percent growth relative to control based on measurement of fungal colony diameter.

Penicillium expansum [1] = experiment: in vitro contact fungicide assay (amended PDA); assay type: cell-based; conditions: three days at 23° C.
Method: as §1, §2

Botrytis cinerea [2] = experiment: in vivo dose by time volatile bioassay using strawberry; conditions: 0.125 mg, 3-day treatment at 21° C. plus 2 days at 21° C., vs acetone only control
Penicillium expansum [3] = experiment: in vivo volatile bioassay using apple; conditions: 50 mg/L; for Sporulation (mm) / Rot (mm): apples
Method: In order to assess the in vivo activity of volatile antimicrobial Compound A in fruit, a volatile bioassay is developed using apple. Two apples are placed inside a PET clamshell. Three fresh wounds per apple are inoculated with 30 μL of 1×10^6 per mL Penicillium expansum spore suspension. The clamshells are placed inside a 10.8-cup SnapWare airtight container (Model #109842). A 42.5 mm Whatman #1 filter disk (Cat. No. 1001-042) is placed on a watch glass. Compound A is dissolved in acetone and added to the disks in a manner to produce a final headspace concentration of 50 mg/L. The acetone is permitted to evaporate for five minutes. The containers are then closed with the lids, and placed for three days at 21° C. After storage, fruits are evaluated for disease incidence (mm diameter of the rot) and pathogen sporulation (mm diameter) on the surface of the fruits for an additional three days at 21° C., with results summarized in Table 19.

Penicillium expansum [4] = experiment: in vivo contact drench assay on apples
Method: In order to assess the activity of Compound A (FIG. 1) as a contact drench fungicide, an in vivo assay is developed. […] Compound A is dissolved in water to achieve a final treatment solution concentration of 250, 50, or 10 mg/L. The fruit is dipped in Compound A solution for 1 minute and allowed to dry for 1 hour. Fruit wounds are then inoculated with 30 μL of 1×10^6 per mL Penicillium expansum spore suspension (apple) or Penicillium digitatum spore suspension (orange). Clamshells are then placed in a 10.8-cup SnapWare airtight container (Model #109842) and incubated for 3 days at 21° C.

Botrytis cinerea [5] = experiment: in vitro spore germination and mycelial growth after transfer; assay type: cell-based; conditions: for Mycelial growth after transfer (%): 3 d after transfer to clean PDA
Method: In order to assess the activity of Compound A as a volatile fungicide, an in vitro assay is developed to evaluate spore germination. 3.5-cm Petri plates are filled with 2 mL of water agar. After cooling, 1 μL of 1×10^5 per mL Botrytis cinerea spore suspension is spot-pipetted into the center of the plate. Plates are inoculated immediately prior to volatile fungicide treatment. A Whatman #1 filter disk (Cat. No. 1001-0155) is placed, in duplicate, on the underside of a plate lid. […] After 24 hours of storage at 23° C., 100 spores are counted for percent germination, where germination is defined as a germ tube that has extended a distance greater than the length of the spore. After counting, treatment is removed, and the plates are resealed. After an additional 24 hours, 100 spores are again counted. Plugs are then transferred to a clean plate containing full-strength PDA and allowed to incubate at 23° C. for an additional three days.

## OB1OCc2cc(F)ccc21 [Compound A]
Fusarium sambucinum
  Dry rot: 0 mm
  Mycelial growth: 0 mm
Penicillium digitatum; 0.08 mg/L
  Incidence (%) P. digitatum: 42.0%
Penicillium digitatum; 0.4 mg/L
  Incidence (%) P. digitatum: 12.5%
Penicillium digitatum; 2 mg/L
  Incidence (%) P. digitatum: 0.0%
Penicillium digitatum; 10 mg/L
  Incidence (%) P. digitatum: 0.0%
Penicillium expansum [1]; 0.08 mg/L
  Incidence (%) P. expansum: 93.1%
Penicillium expansum [1]; 0.4 mg/L
  Incidence (%) P. expansum: 33.0%
Penicillium expansum [1]; 2 mg/L
  Incidence (%) P. expansum: 0.0%
Penicillium expansum [1]; 10 mg/L
  Incidence (%) P. expansum: 0.0%
Botrytis cinerea [2]
  in vivo inhibition of Botrytis cinerea: 100%
Penicillium expansum [3]; up to 3 days after treatment
  in vivo volatile antimicrobial control of P. expansum mold of apple: 100%
Penicillium expansum [3]; Day 0
  Sporulation (mm): 0 mm
Penicillium expansum [3]; Day 1
  Rot (mm): 0 mm
  Sporulation (mm): 0 mm
Penicillium expansum [3]; Day 2
  Rot (mm): 0 mm
  Sporulation (mm): 0 mm
Penicillium expansum [3]; Day 3
  Rot (mm): 0 mm
  Sporulation (mm): 0 mm
Penicillium expansum [4]; dip 10 mg/L
  Browning (mm): 8.5 mm
  Sporulation (mm): 2.1 mm
Penicillium expansum [4]; dip 50 mg/L
  Browning (mm): 3.7 mm
  Sporulation (mm): 1.6 mm
Penicillium expansum [4]; dip 250 mg/L
  Browning (mm): 0.8 mm
  Sporulation (mm): 0.5 mm
Botrytis cinerea [5]; 0.07 mg/L, 24 h + 24 h after treatment removal
  Spore germination (%): 10.0%
Botrytis cinerea [5]; 0.07 mg/L, 24 h treatment
  Spore germination (%): 0.0%
Botrytis cinerea [5]; 0.07 mg/L
  Mycelial growth after transfer (%): 60.3%
Botrytis cinerea [5]; 0.14 mg/L, 24 h + 24 h after treatment removal
  Spore germination (%): 0.0%
Botrytis cinerea [5]; 0.14 mg/L, 24 h treatment
  Spore germination (%): 0.0%
Botrytis cinerea [5]; 0.14 mg/L
  Mycelial growth after transfer (%): 53.8%
Botrytis cinerea [5]; 0.28 mg/L, 24 h + 24 h after treatment removal
  Spore germination (%): 0.0%
Botrytis cinerea [5]; 0.28 mg/L, 24 h treatment
  Spore germination (%): 0.0%
Botrytis cinerea [5]; 0.28 mg/L
  Mycelial growth after transfer (%): 51.3%
Botrytis cinerea [5]; 0.56 mg/L, 24 h + 24 h after treatment removal
  Spore germination (%): 0.0%
Botrytis cinerea [5]; 0.56 mg/L, 24 h treatment
  Spore germination (%): 0.0%
Botrytis cinerea [5]; 0.56 mg/L
  Mycelial growth after transfer (%): 43.3%
Botrytis cinerea [5]; 71.4 mg/L, 24 h + 24 h after treatment removal
  Spore germination (%): 0.0%
Botrytis cinerea [5]; 71.4 mg/L, 24 h treatment
  Spore germination (%): 0.0%
Botrytis cinerea [5]; 71.4 mg/L
  Mycelial growth after transfer (%): 0.0%
Botrytis cinerea [5]; 142.9 mg/L, 24 h + 24 h after treatment removal
  Spore germination (%): 0.0%
Botrytis cinerea [5]; 142.9 mg/L, 24 h treatment
  Spore germination (%): 0.0%
Botrytis cinerea [5]; 142.9 mg/L
  Mycelial growth after transfer (%): 0.0%
Botrytis cinerea [5]; treated spores after the compound has been removed
  fungicidal or fungistatic effect: fungicidal effect
